# Source: patent publication US12071402B2, “Immunosuppressant formulations” (Novartis AG, priority 2011, dated 2024)
# Assay: Stability of NVS-A in mixtures with various compounds, 50° C./75% RH, 4 weeks, HPLC assay
# Format: physicochemical
# Details: vial
# Method: The following Example illustrates the stability of the hemifumarate salt of 1-{4-[1-(4-cyclohexyl-3-trifluoromethyl-benzyloxyimino)-ethyl]-2-ethyl-benzyl}-azetidine-3-carboxylic acid in the presence of various compounds. Mixtures of this API with various compounds were exposed in a sealed vial to conditions of 50° C. temperature and 75% relative humidity for 4 weeks. After 4 weeks, the API degradation and sum of degradation products were assayed.
# Assay method: HPLC using agilent […] and a Phenomenex Gemini C18 column. UV detection at 260 nm was used. The mobile phase used was a gradient water-acetonitrile containing 0.2% (v/v) formic acid and 10% (v/v) Triethylamine.
smiles,measurement,value
"CCc1cc(C(C)=NOCc2ccc(C3CCCCC3)c(C(F)(F)F)c2)ccc1CN1CC(C(=O)O)C1 [NVS-A, 1-{4-[1-(4-cyclohexyl-3-trifluoromethyl-benzyloxyimino)-ethyl]-2-ethyl-benzyl}-azetidine-3-carboxylic acid]",Assay (%)*,100.2%
same,Sum of unknown peaks (%)*,1.86%
